The results in this text go back to article PMC4076210, “Discovery of Novel AKT Inhibitors with Enhanced Anti-Tumor Effects in Combination with the MEK Inhibitor” (PLoS ONE, 2014).

Common to all, as to test: Kinase panel
Holding throughout (assay type): biochemical

In one experiment the target is T1, GRK6(h) (Homo sapiens, UniProt P43250).
T1 construct: purchased Millipore KinaseProfiler

The target in another experiment is T2, HIPK2(h) (Homo sapiens, UniProt Q9H2X6).
T2 construct: purchased Millipore KinaseProfiler
T2 sequence (Q9H2X6 whole entry): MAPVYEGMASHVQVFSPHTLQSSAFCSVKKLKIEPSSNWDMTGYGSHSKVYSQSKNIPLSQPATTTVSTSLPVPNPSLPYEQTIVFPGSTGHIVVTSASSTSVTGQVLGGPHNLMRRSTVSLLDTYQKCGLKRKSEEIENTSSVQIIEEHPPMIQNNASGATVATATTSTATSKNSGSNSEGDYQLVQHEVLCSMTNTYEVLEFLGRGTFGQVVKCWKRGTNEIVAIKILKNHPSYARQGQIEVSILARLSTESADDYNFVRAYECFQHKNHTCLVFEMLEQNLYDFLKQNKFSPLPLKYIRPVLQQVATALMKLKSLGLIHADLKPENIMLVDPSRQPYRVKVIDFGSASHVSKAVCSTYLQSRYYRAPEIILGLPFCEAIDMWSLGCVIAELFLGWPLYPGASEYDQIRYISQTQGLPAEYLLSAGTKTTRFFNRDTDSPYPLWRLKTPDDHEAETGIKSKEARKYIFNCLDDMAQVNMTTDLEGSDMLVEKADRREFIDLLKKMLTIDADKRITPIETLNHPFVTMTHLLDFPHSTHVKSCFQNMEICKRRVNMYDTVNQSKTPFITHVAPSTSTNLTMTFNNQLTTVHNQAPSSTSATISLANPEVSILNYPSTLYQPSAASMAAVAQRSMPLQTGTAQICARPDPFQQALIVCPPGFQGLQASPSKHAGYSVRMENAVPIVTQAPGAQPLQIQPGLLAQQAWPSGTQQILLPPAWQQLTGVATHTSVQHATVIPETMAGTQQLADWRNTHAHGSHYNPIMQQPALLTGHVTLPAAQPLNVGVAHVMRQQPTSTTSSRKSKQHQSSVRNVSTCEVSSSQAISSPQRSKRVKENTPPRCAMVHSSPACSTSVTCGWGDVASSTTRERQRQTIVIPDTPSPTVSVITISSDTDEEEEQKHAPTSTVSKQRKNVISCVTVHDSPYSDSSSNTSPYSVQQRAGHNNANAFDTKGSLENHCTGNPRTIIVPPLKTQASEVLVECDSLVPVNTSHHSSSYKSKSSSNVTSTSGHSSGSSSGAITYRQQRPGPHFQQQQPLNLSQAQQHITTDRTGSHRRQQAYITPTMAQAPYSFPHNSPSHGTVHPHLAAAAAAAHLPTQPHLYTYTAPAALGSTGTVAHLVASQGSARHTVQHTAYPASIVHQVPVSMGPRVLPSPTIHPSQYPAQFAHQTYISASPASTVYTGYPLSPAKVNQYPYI

In the next experiment the target is T3, NEK11(h) (Homo sapiens, UniProt Q8NG66).
T3 construct: purchased Millipore KinaseProfiler
T3 sequence (Q8NG66 1-645): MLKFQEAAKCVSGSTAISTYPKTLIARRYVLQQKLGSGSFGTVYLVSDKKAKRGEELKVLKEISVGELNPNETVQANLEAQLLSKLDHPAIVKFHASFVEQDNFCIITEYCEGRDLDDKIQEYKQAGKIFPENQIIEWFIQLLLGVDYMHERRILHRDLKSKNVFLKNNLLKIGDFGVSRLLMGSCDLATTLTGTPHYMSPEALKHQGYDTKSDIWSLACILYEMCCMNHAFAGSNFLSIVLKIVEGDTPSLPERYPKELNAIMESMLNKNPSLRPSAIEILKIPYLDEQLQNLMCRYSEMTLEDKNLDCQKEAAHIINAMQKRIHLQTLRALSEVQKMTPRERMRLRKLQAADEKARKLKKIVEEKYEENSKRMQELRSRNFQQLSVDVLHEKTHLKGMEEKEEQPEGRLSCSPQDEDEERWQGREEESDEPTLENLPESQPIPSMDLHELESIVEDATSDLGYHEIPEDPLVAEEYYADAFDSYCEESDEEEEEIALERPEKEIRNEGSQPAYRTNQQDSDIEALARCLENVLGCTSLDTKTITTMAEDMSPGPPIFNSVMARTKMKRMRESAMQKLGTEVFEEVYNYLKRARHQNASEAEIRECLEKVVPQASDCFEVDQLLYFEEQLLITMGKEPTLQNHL

A further experiment concerns the target T4, PKCε(h) (Homo sapiens, UniProt Q02156).
T4 construct: purchased Millipore KinaseProfiler
T4 sequence (Q02156 1-737): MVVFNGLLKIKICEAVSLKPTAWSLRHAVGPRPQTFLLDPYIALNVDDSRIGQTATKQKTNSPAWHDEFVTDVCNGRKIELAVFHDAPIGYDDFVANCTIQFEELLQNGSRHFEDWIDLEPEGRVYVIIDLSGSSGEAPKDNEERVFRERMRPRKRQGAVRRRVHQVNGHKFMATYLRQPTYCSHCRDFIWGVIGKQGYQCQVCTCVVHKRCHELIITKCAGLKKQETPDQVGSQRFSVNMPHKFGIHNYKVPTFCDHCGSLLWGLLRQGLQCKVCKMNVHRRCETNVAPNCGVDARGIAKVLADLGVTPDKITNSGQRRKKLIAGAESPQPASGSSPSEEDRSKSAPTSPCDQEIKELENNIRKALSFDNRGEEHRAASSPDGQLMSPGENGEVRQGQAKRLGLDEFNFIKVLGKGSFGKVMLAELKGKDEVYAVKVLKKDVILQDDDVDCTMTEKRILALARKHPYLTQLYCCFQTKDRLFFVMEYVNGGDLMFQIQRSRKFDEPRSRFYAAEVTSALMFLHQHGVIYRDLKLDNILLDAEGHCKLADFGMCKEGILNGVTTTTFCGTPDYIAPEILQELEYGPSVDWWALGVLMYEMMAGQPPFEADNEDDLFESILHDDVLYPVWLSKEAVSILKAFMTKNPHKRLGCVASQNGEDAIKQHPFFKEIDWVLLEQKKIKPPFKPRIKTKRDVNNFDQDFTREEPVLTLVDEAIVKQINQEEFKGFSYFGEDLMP

A further experiment deals with T5, PKCι(h) (Homo sapiens, UniProt P41743).
T5 construct: purchased Millipore KinaseProfiler
T5 sequence (P41743 1-596): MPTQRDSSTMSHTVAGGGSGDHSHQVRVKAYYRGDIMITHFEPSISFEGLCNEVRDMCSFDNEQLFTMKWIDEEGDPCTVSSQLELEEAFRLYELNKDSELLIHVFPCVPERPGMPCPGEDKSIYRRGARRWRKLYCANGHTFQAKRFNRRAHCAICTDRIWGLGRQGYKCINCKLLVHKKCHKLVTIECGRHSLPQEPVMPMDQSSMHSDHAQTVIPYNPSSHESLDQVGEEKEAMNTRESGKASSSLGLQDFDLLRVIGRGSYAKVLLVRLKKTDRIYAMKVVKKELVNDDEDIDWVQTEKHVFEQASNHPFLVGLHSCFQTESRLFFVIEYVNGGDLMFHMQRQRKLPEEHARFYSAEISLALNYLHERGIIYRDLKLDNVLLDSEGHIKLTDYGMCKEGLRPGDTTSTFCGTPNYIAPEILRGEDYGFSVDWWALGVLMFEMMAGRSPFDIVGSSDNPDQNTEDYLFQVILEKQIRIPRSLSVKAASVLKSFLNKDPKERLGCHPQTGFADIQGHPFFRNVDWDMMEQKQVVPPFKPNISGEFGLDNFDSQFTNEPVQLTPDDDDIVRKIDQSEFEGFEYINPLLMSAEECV

The target in another experiment is T6, TrkA(h) (Homo sapiens, UniProt P04629).
T6 construct: purchased Millipore KinaseProfiler
T6 sequence (P04629 33-796): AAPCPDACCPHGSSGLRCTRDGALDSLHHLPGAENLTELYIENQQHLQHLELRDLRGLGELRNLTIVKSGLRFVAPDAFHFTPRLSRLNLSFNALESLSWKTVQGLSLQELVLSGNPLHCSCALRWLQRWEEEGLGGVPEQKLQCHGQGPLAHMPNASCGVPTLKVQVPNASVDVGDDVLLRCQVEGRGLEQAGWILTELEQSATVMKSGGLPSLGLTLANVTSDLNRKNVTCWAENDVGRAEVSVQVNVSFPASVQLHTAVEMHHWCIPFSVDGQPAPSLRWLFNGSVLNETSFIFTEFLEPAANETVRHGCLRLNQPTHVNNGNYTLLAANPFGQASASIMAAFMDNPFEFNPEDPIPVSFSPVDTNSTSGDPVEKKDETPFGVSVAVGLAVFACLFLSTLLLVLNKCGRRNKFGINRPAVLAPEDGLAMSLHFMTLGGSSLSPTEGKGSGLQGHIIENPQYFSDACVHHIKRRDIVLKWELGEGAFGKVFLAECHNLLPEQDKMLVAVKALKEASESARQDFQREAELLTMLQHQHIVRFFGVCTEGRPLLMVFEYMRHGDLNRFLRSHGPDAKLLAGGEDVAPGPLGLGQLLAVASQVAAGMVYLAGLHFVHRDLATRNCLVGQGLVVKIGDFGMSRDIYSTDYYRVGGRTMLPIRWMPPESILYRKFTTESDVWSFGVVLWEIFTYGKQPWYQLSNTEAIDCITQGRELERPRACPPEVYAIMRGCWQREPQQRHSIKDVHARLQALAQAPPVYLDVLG

As a reminder, the inhibition is the drop in the measured response relative to a control, in per cent.

Each structure is given as a SMILES string. Where two headings read alike, the source gives them in different places.

T1 sequence (P43250 whole entry): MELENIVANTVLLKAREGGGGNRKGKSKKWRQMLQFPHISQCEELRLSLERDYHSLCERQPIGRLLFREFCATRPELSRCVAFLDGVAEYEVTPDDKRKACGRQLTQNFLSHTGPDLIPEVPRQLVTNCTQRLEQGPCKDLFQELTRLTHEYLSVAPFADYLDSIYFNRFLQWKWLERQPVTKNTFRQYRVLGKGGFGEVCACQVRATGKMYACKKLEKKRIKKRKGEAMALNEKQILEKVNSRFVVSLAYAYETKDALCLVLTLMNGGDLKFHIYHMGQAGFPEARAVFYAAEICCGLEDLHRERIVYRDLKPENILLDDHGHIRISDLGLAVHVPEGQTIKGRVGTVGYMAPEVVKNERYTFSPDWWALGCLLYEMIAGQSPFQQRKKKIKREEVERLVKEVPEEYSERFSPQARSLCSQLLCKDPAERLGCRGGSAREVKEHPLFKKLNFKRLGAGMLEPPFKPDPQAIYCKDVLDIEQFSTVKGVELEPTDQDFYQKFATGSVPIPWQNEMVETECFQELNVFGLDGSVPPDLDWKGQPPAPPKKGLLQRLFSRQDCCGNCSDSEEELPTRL

In the case of `Cn1ncc(Cl)c1-c1cc(C(=O)N[C@H](CN)Cc2cccc(F)c2)sc1Cl` [GSK2110183], the inhibition at 0.5 µM at GRK6(h) was -8%; on HIPK2(h), 25%; against NEK11(h), -13%; at PKCε(h), 19%; at PKCι(h), 1%; on TrkA(h), 9%. Moreover, the inhibition at 10 µM against GRK6(h) is 10%; against HIPK2(h), 87%; at NEK11(h), -11%; against PKCε(h), 80%; against PKCι(h), 50%; at TrkA(h) it was 69%.
With `Cn1ncc(Cl)c1-c1cc(C(=O)N[C@H](CN)Cc2ccc(F)c(F)c2)oc1Cl` [GSK2141795], the inhibition at 0.5 µM on GRK6(h) (0.5 µM, read-out: % Inhibition) was -16%; at HIPK2(h) (0.5 µM, read-out: % Inhibition), 26%; at NEK11(h) (0.5 µM, read-out: % Inhibition), -11%; at PKCε(h) (0.5 µM, read-out: % Inhibition), 32%; at PKCι(h) (0.5 µM, read-out: % Inhibition), 0%; on TrkA(h) (0.5 µM, read-out: % Inhibition) it was -13%. Moreover, the inhibition at 10 µM was 26% at GRK6(h) (10 µM, read-out: % Inhibition); 83% on HIPK2(h) (10 µM, read-out: % Inhibition); -2% at NEK11(h) (10 µM, read-out: % Inhibition); 81% at PKCε(h) (10 µM, read-out: % Inhibition); 43% at PKCι(h) (10 µM, read-out: % Inhibition); 63% at TrkA(h) (10 µM, read-out: % Inhibition).
